Experimental data from article PMC4303209, “A novel phosphatidylinositol 3-kinase (PI3K) inhibitor directs a potent FOXO-dependent, p53-independent cell cycle arrest phenotype characterized by the differential induction of a subset of FOXO-regulated genes” (Breast Cancer Research : BCR, 2014).

System: MCF-7 breast cancer cells
Experiment: Microarray gene expression analysis (Agilent whole human genome 4 x 44K; compound vs DMSO, LIMMA log2 fold change)
Assay type: cell-based

Structure (SMILES): Oc1cccc(-c2nc(N3CCOCC3)c3oc4ncccc4c3n2)c1 [PI-103]
- EYA1 log2FC (gene EYA1 (2138), apoptosis genes): 0.027
- log2FC EYA1 (gene EYA1 (Gene 2138), cell cycle genes): 0.027
- FABP1 log2FC (gene FABP1 (2168), apoptosis genes): -0.014
- FAIM2 log2FC (gene FAIM2 (23017), apoptosis genes): 0.077
- FAM3B log2FC (gene FAM3B (54097), apoptosis genes): -0.110
- FAM32A log2FC (gene FAM32A (26017), apoptosis genes): -0.300
- log2FC FAM32A (gene FAM32A (Gene 26017), cell cycle genes): -0.30
- log2FC (gene FAM58A (Gene 92002), cell cycle genes): 0.17
- FAS log2FC (gene FAS (355), apoptosis genes): -0.278
- log2FC (gene FBXL15 (Gene 79176), cell cycle genes): 0.25
- log2FC FGFR1OP (gene FGFR1OP (Gene 11116), cell cycle genes): -0.20
- FIS1 log2FC (gene FIS1 (51024), apoptosis genes): 0.161
- FKSG2 log2FC (gene FKSG2 (59347), apoptosis genes): -0.076
- log2FC (gene FMN2 (Gene 56776), cell cycle genes): 0.00262
- FOXB1 log2FC (gene FOXB1 (27023), apoptosis genes): -0.433
- log2FC (gene FSD1 (Gene 79187), cell cycle genes): -0.09
- GADD45G log2FC (gene GADD45G (10912), apoptosis genes): -0.195
- GAPDH log2FC (gene GAPDH (2597), apoptosis genes): 0.013
- log2FC (gene GAS2L1 (Gene 10634), cell cycle genes): -0.26
- log2FC GAS2L2 (gene GAS2L2 (Gene 246176), cell cycle genes): -0.00222
- GAS6 log2FC (gene GAS6 (2621), apoptosis genes): -0.103
- GATA6 log2FC (gene GATA6 (2627), apoptosis genes): 0.052
- log2FC GATA6 (gene GATA6 (Gene 2627), cell cycle genes): 0.05
- GCG log2FC (gene GCG (2641), apoptosis genes): 0.035
- GCLM log2FC (gene GCLM (2730), apoptosis genes): -0.246
- GCM2 log2FC (gene GCM2 (9247), apoptosis genes): -0.063
- log2FC (gene GEM (Gene 2669), cell cycle genes): 0.84
- GFRAL log2FC (gene GFRAL (389400), apoptosis genes): -0.028
- GHRL log2FC (gene GHRL (51738), apoptosis genes): -0.060
- GIMAP5 log2FC (gene GIMAP5 (55340), apoptosis genes): 0.028
- GJB6 log2FC (gene GJB6 (10804), apoptosis genes): 0.090
- log2FC (gene GOLGA2 (Gene 2801), cell cycle genes): 0.24
- log2FC (gene GORASP1 (Gene 64689), cell cycle genes): 0.05
- log2FC (gene GORASP2 (Gene 26003), cell cycle genes): -0.48
- GPI log2FC (gene GPI (2821), apoptosis genes): 0.047
- GPR65 log2FC (gene GPR65 (8477), apoptosis genes): -0.016
- GRK1 log2FC (gene GRK1 (6011), apoptosis genes): -0.053
- log2FC (gene GTPBP8 (Gene 29083), cell cycle genes): 0.10
- log2FC (gene GTSE1 (Gene 51512), cell cycle genes): -0.33
- log2FC H1FOO (gene H1FOO (Gene 132243), cell cycle genes): 0.05
- HCLS1 log2FC (gene HCLS1 (3059), apoptosis genes): 0.112
- log2FC (gene HELLS (Gene 3070), cell cycle genes): 0.14
- HIPK3 log2FC (gene HIPK3 (10114), apoptosis genes): -0.044
- log2FC HORMAD2 (gene HORMAD2 (Gene 150280), cell cycle genes): 0.09
- log2FC HPGD (gene HPGD (Gene 3248), cell cycle genes): 0.065
- HPN log2FC (gene HPN (3249), apoptosis genes): -0.076
- HTRA2 log2FC (gene HTRA2 (27429), apoptosis genes): 0.078
- log2FC HTRA2 (gene HTRA2 (Gene 27429), cell cycle genes): 0.08
- IFI6 log2FC (gene IFI6 (2537), apoptosis genes): 0.0043
- IFNA2 log2FC (gene IFNA2 (3440), apoptosis genes): 0.014
- IFNB1 log2FC (gene IFNB1 (3456), apoptosis genes): 0.022
- IL1A log2FC (gene IL1A (3552), apoptosis genes): -0.067
- IL2RA log2FC (gene IL2RA (3559), apoptosis genes): -0.038
- IL2RB log2FC (gene IL2RB (3560), apoptosis genes): -0.066
- IL12A log2FC (gene IL12A (3592), apoptosis genes): -0.262
- log2FC IL12A (gene IL12A (Gene 3592), cell cycle genes): -0.26
- IL12B log2FC (gene IL12B (3593), apoptosis genes): -0.023
- IL17A log2FC (gene IL17A (3605), apoptosis genes): 0.037
- IL19 log2FC (gene IL19 (29949), apoptosis genes): -0.032
- ILK log2FC (gene ILK (3611), apoptosis genes): -0.047
- log2FC ILKAP (gene ILKAP (Gene 80895), cell cycle genes): -0.08
- INSL6 log2FC (gene INSL6 (11172), apoptosis genes): 0.047
- ISL1 log2FC (gene ISL1 (3670), apoptosis genes): -0.142
- ITGA6 log2FC (gene ITGA6 (3655), apoptosis genes): -0.139
- ITGB2 log2FC (gene ITGB2 (3689), apoptosis genes): 0.148
- ITM2C log2FC (gene ITM2C (81618), apoptosis genes): 0.019
- log2FC KATNB1 (gene KATNB1 (Gene 10300), cell cycle genes): 0.26
- log2FC KCNA5 (gene KCNA5 (Gene 3741), cell cycle genes): -0.0139
- KDR log2FC (gene KDR (3791), apoptosis genes): -0.033
- log2FC (gene KIAA0101 (Gene 9768), cell cycle genes): 0.28
- KIAA1324 log2FC (gene KIAA1324 (57535), apoptosis genes): -0.031
- log2FC KIF2B (gene KIF2B (Gene 84643), cell cycle genes): -0.17
- log2FC (gene KIF13A (Gene 63971), cell cycle genes): 0.06
- log2FC (gene KIF23 (Gene 9493), cell cycle genes): 0.55
- log2FC KIF25 (gene KIF25 (Gene 3834), cell cycle genes): 0.00228
- KLF4 log2FC (gene KLF4 (9314), apoptosis genes): -0.178
- KRT20 log2FC (gene KRT20 (54474), apoptosis genes): -0.013
- LALBA log2FC (gene LALBA (3906), apoptosis genes): -0.012
- log2FC LATS1 (gene LATS1 (Gene 9113), cell cycle genes): 0.0843
- log2FC (gene LATS2 (Gene 26524), cell cycle genes): 0.38
- LCMT1 log2FC (gene LCMT1 (51451), apoptosis genes): 0.003
- LCN2 log2FC (gene LCN2 (3934), apoptosis genes): 0.063
- log2FC (gene LEMD3 (Gene 23592), cell cycle genes): 0.29
- LGALS1 log2FC (gene LGALS1 (3956), apoptosis genes): 0.053
- LGALS12 log2FC (gene LGALS12 (85329), apoptosis genes): 0.050
- LGALS14 log2FC (gene LGALS14 (56891), apoptosis genes): 0.104
- log2FC (gene LMNA (Gene 4000), cell cycle genes): -0.0134
- LRP1 log2FC (gene LRP1 (4035), apoptosis genes): 0.043
- log2FC (gene LRP6 (Gene 4040), cell cycle genes): -0.12
- log2FC (gene LSM11 (Gene 134353), cell cycle genes): 0.09
- LTA log2FC (gene LTA (4049), apoptosis genes): 0.136
- LTF log2FC (gene LTF (4057), apoptosis genes): 0.014
- MAD2L1 log2FC (gene MAD2L1 (4085), apoptosis genes): -0.145
- MAEL log2FC (gene MAEL (84944), apoptosis genes): -0.172
- log2FC MAEL (gene MAEL (Gene 84944), cell cycle genes): -0.17
- MAGED1 log2FC (gene MAGED1 (9500), apoptosis genes): -0.047
- MAGEH1 log2FC (gene MAGEH1 (28986), apoptosis genes): 0.025
- MAP2K5 log2FC (gene MAP2K5 (5607), apoptosis genes): -0.018
- MAP2K7 log2FC (gene MAP2K7 (5609), apoptosis genes): 0.032
- log2FC (gene MAP3K8 (Gene 1326), cell cycle genes): 0.0265
- log2FC (gene MAP4 (Gene 4134), cell cycle genes): -0.23
- MAPK1 log2FC (gene MAPK1 (5594), apoptosis genes): 0.017
- log2FC (gene MAPK4 (Gene 5596), cell cycle genes): -0.08
- log2FC (gene MAPK6 (Gene 5597), cell cycle genes): 0.12
- MAPK8 log2FC (gene MAPK8 (5599), apoptosis genes): -0.015
- MAPK9 log2FC (gene MAPK9 (5601), apoptosis genes): -0.052
- log2FC (gene MAPK12 (Gene 6300), cell cycle genes): -0.18
- MAPT log2FC (gene MAPT (4137), apoptosis genes): 0.031
- log2FC MCM4 (gene MCM4 (Gene 4173), cell cycle genes): -0.12
- MDM4 log2FC (gene MDM4 (4194), apoptosis genes): -0.144
- log2FC (gene MED25 (Gene 81857), cell cycle genes): -0.19
- MKL1 log2FC (gene MKL1 (57591), apoptosis genes): 0.300
- MKNK1 log2FC (gene MKNK1 (8569), apoptosis genes): 0.102
- MNDA log2FC (gene MNDA (4332), apoptosis genes): 0.077
- MSX2 log2FC (gene MSX2 (4488), apoptosis genes): 0.052
- MT3 log2FC (gene MT3 (4504), apoptosis genes): -0.313
- log2FC (gene MYOG (Gene 4656), cell cycle genes): -0.13
- NACA log2FC (gene NACA (4666), apoptosis genes): 0.038
- log2FC NANOG (gene NANOG (Gene 79923), cell cycle genes): -0.07
- log2FC (gene NASP (Gene 4678), cell cycle genes): 0.16
- NCF1 log2FC (gene NCF1 (653361), apoptosis genes): 0.093
- NCF2 log2FC (gene NCF2 (4688), apoptosis genes): -0.014
- log2FC (gene NCOR1 (Gene 9611), cell cycle genes): 0.25
- NDUFS3 log2FC (gene NDUFS3 (4722), apoptosis genes): 0.064
- NEURL log2FC (gene NEURL (9148), apoptosis genes): 0.053
- NEUROD1 log2FC (gene NEUROD1 (4760), apoptosis genes): 0.039
- log2FC NEUROG1 (gene NEUROG1 (Gene 4762), cell cycle genes): -0.44
- NLE1 log2FC (gene NLE1 (54475), apoptosis genes): 0.195
- NME6 log2FC (gene NME6 (10201), apoptosis genes): -0.015
- log2FC NME6 (gene NME6 (Gene 10201), cell cycle genes): -0.0153
- NOS1AP log2FC (gene NOS1AP (9722), apoptosis genes): 0.021
- NOTCH1 log2FC (gene NOTCH1 (4851), apoptosis genes): -0.008
- NOX5 log2FC (gene NOX5 (79400), apoptosis genes): 0.00161
- log2FC NOX5 (gene NOX5 (Gene 79400), cell cycle genes): 0.00161
- NTRK1 log2FC (gene NTRK1 (4914), apoptosis genes): 0.391
- log2FC (gene NUMA1 (Gene 4926), cell cycle genes): -0.09
- log2FC (gene NUP153 (Gene 9972), cell cycle genes): -0.34
- log2FC NUP155 (gene NUP155 (Gene 9631), cell cycle genes): -0.14
- log2FC (gene NUP188 (Gene 23511), cell cycle genes): -0.16
- NUPR1 log2FC (gene NUPR1 (26471), apoptosis genes): 0.072
- OSR1 log2FC (gene OSR1 (130497), apoptosis genes): -0.027
- P4HB log2FC (gene P4HB (5034), apoptosis genes): 0.036
- log2FC (gene PA2G4 (Gene 5036), cell cycle genes): -0.51
- PAFAH2 log2FC (gene PAFAH2 (5051), apoptosis genes): -0.020
- PAK6 log2FC (gene PAK6 (56924), apoptosis genes): 0.142
- log2FC PAK6 (gene PAK6 (Gene 56924), cell cycle genes): 0.14
- log2FC (gene PAPD5 (Gene 64282), cell cycle genes): 0.31
- PARK7 log2FC (gene PARK7 (11315), apoptosis genes): 0.018
- PAX2 log2FC (gene PAX2 (5076), apoptosis genes): 0.009
- log2FC PCNA (gene PCNA (Gene 5111), cell cycle genes): -0.28
- PCSK9 log2FC (gene PCSK9 (255738), apoptosis genes): -0.221
- log2FC PDCD2L (gene PDCD2L (Gene 84306), cell cycle genes): -0.12
- PDCD5 log2FC (gene PDCD5 (9141), apoptosis genes): -0.049
- PDCL3 log2FC (gene PDCL3 (79031), apoptosis genes): -0.222
- PDE1B log2FC (gene PDE1B (5153), apoptosis genes): 0.019
- PDE3A log2FC (gene PDE3A (5139), apoptosis genes): 0.00129
- log2FC PDE3A (gene PDE3A (Gene 5139), cell cycle genes): 0.00129
